US20240059703A1 (AMGEN INC., priority 2021, published 2024)
pIC50: −log10 of the molar value.

molecular target: KRAS G12C (Homo sapiens (Human), UniProt P01116, C118A/G12C); assay: 2 h coupled exchange assay; assay type: biochemical; conditions: Avg 2 h Coupled exchange IC50, 2 h compound pre-incubation, SOS-mediated nucleotide exchange
Protocol: The term “2 h coupled exchange assay” or “20 h coupled exchange assay” as used herein refers to the assay described in the Section entitled “BIOLOGICAL EVALUATION.”

Sequence of KRAS G12C (P01116 other isoform, or with tags, fused parts or gaps G12C/C118A): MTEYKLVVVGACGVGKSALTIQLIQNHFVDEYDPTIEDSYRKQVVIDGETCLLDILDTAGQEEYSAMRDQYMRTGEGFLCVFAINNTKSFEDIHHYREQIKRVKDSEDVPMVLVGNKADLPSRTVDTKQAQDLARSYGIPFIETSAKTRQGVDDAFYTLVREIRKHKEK

pIC50	SMILES
6.17	C=CC(=O)N1CC2(CCN(c3nc4c(c(-c5cc(C)cc6ccccc56)c3C#N)COC(C)(C)C4)C2)C1 [Example 13-33, 7,7-dimethyl-4-(3-methyl-1-naphthalenyl)-2-(2-(2-propenoyl)-2,6-diazaspiro[3.4]octan-6-yl)-7,8-dihydro-5H-pyrano[4,3-b]pyridine-3-carbonitrile]
6.02	C=CC(=O)N1CC2(CCN(c3nc4c(c(-c5c(O)ccc6ccccc56)c3C#N)COC(C)(C)C4)C2)C1 [Example 13-34, 4-(2-hydroxy-1-naphthalenyl)-7,7-dimethyl-2-(2-(2-propenoyl)-2,6-diazaspiro[3.4]octan-6-yl)-7,8-dihydro-5H-pyrano[4,3-b]pyridine-3-carbonitrile]
5.75	C=CC(=O)N1CC2(CCN(c3nc4c(c(-c5c(O)ccc6ccccc56)c3C#N)C[C@H]3C[C@@H]4C3)C2)C1 [Example 13-35, (1S,9S)-6-(2-hydroxy-1-naphthalenyl)-4-(2-(2-propenoyl)-2,6-diazaspiro[3.4]octan-6-yl)-3-azatricyclo[7.1.1.0^2,7]undeca-2,4,6-triene-5-carbonitrile]
5.85	C=CC(=O)N1CC2(CCN(c3nc4c(c(-c5c(C)cccc5O)c3C#N)C[C@H]3C[C@@H]4C3)C2)C1 [Example 13-38, (1S,9S)-6-(2-hydroxy-6-methylphenyl)-4-(2-(2-propenoyl)-2,6-diazaspiro[3.4]octan-6-yl)-3-azatricyclo[7.1.1.0^2,7]undeca-2,4,6-triene-5-carbonitrile]
6.16	C=CC(=O)N1CC2(CCN(c3nc4c(c(-c5c(C)ccc6[nH]ncc56)c3COC)CCC(C)(C)C4)C2)C1 [Example 13-46, 1-(6-(3-(methoxymethyl)-7,7-dimethyl-4-(5-methyl-1H-indazol-4-yl)-5,6,7,8-tetrahydro-2-quinolinyl)-2,6-diazaspiro[3.4]octan-2-yl)-2-propen-1-one]
6.53	C=CC(=O)N1CC2(C1)CN(c1nc3c(c(-c4c(C)ccc5cnn(C)c45)c1C#N)COC(C)(C)C3)CC2(F)F [Example 13-47, 2-(8,8-difluoro-2-(2-propenoyl)-2,6-diazaspiro[3.4]octan-6-yl)-4-(1,6-dimethyl-1H-indazol-7-yl)-7,7-dimethyl-7,8-dihydro-5H-pyrano[4,3-b]pyridine-3-carbonitrile]
6.18	C=CC(=O)N1CC2(CCN(c3nc4c(c(-c5c(C)ccc6cnn(C)c56)c3C#N)COC(C)(C)C4)C2(C)C)C1 [Example 13-48, 4-(1,6-dimethyl-1H-indazol-7-yl)-2-(5,5-dimethyl-2-(2-propenoyl)-2,6-diazaspiro[3.4]octan-6-yl)-7,7-dimethyl-7,8-dihydro-5H-pyrano[4,3-b]pyridine-3-carbonitrile]
6.06	C=CC(=O)N1CC2(CCN(c3nc4c(c(-c5c(C)ccc6cnn(C)c56)c3C#N)COC4(C)C)C2)C1 [Example 13-55, 4-(1,6-dimethyl-1H-indazol-7-yl)-7,7-dimethyl-2-(2-(2-propenoyl)-2,6-diazaspiro[3.4]octan-6-yl)-5,7-dihydrofuro[3,4-b]pyridine-3-carbonitrile]

The remaining lines, values behind:

SMILES	pIC50
C=CC(=O)N1CC2(CCN(c3nc4c(c(-c5cccc6c(O)cccc56)c3C#N)COC(C)(C)C4)C2)C1 [Example 12-33, 4-(5-hydroxy-1-naphthalenyl)-7,7-dimethyl-2-(2-(2-propenoyl)-2,6-diazaspiro[3.4]octan-6-yl)-7,8-dihydro-5H-pyrano[4,3-b]pyridine-3-carbonitrile]	6.28
C=CC(=O)N1CC2(CCN(c3nc4c(c(-c5cccc6cnn(C)c56)c3C#N)C[C@H]3C[C@@H]4C3(C)C)C2)C1 [Example 12-40, (1R,9R)-10,10-dimethyl-6-(1-methyl-1H-indazol-7-yl)-4-(2-(2-propenoyl)-2,6-diazaspiro[3.4]octan-6-yl)-3-azatricyclo[7.1.1.0^2,7] undeca-2,4,6-triene-5-carbonitrile]	6.46
C=CC(=O)N1CC2(CCN(c3nc4c(c(-c5cccc6[nH]ccc56)c3C#N)C[C@H]3C[C@@H]4C3(C)C)C2)C1 [Example 12-42, (1R,9R)-6-(1H-indol-4-yl)-10,10-dimethyl-4-(2-(2-propenoyl)-2,6-diazaspiro[3.4]octan-6-yl)-3-azatricyclo[7.1.1.0^2,7] undeca-2,4,6-triene-5-carbonitrile]	6.06
Cc1ccc2[nH]ncc2c1-c1c(C#N)c(N2CCC3(CN(C(=O)/C=C/CF)C3)C2)nc2c1CCC(C)(C)C2 [Example 13-6, 2-(2-((2E)-4-fluoro-2-butenoyl)-2,6-diazaspiro[3.4]octan-6-yl)-7,7-dimethyl-4-(5-methyl-1H-indazol-4-yl)-5,6,7,8-tetrahydro-3-quinolinecarbonitrile]	6.77
Cc1ccc2[nH]ncc2c1-c1c(C#N)c(N2CCC3(CN(C(=O)/C=C/C(F)(F)F)C3)C2)nc2c1CCC(C)(C)C2 [Example 13-7, 7,7-dimethyl-4-(5-methyl-1H-indazol-4-yl)-2-(2-((2E)-4,4,4-trifluoro-2-butenoyl)-2,6-diazaspiro[3.4]octan-6-yl)-5,6,7,8-tetrahydro-3-quinolinecarbonitrile]	6.64
Cc1ccc2[nH]ncc2c1-c1c(C#N)c(N2CCC3(CN(C(=O)/C=C/CO)C3)C2)nc2c1CCC(C)(C)C2 [Example 13-9, 2-(2-((2E)-4-hydroxy-2-butenoyl)-2,6-diazaspiro[3.4]octan-6-yl)-7,7-dimethyl-4-(5-methyl-1H-indazol-4-yl)-5,6,7,8-tetrahydro-3-quinolinecarbonitrile]	6.49
C=CC(=O)N1CC2(CCN(c3nc4c(c(-c5c(C)ccc6[nH]ncc56)c3C#N)CN(C)CC4)C2)C1 [Example 13-22, 6-methyl-4-(5-methyl-1H-indazol-4-yl)-2-(2-(2-propenoyl)-2,6-diazaspiro[3.4]octan-6-yl)-5,6,7,8-tetrahydro-1,6-naphthyridine-3-carbonitrile]	6.59
C=CC(=O)N1CC2(CCN(c3nc4c(c(-c5ccccc5Cl)c3C#N)CC(C)(C)C4)C2)C1 [Example 13-23, 4-(2-chlorophenyl)-6,6-dimethyl-2-(2-(2-propenoyl)-2,6-diazaspiro[3.4]octan-6-yl)-6,7-dihydro-5H-cyclopenta[b]pyridine-3-carbonitirle]	6.11
C=CC(=O)N1CC2(CCN(c3nc4c(c(-c5scnc5C)c3C#N)CCC(c3ccnn3C)C4)C2)C1 [Example 13-27, (7S)-7-(1-methyl-1H-pyrazol-5-yl)-4-(4-methyl-1,3-thiazol-5-yl)-2-(2-(2-propenoyl)-2,6-diazaspiro[3.4]octan-6-yl)-5,6,7,8-tetrahydro-3-quinolinecarbonitrile|(7R)-7-(1-methyl-1H-pyrazol-5-yl)-4-(4-methyl-1,3-thiazol-5-yl)-2-(2-(2-propenoyl)-2,6-diazaspiro[3.4]octan-6-yl)-5,6,7,8-tetrahydro-3-quinolinecarbonitrile]	6.64
C=CC(=O)N1CC2(CCN(c3nc4c(c(-c5c(C)ccc6cnn(C)c56)c3C#N)C[C@H]3C[C@@H]4C3)[C@H]2C)C1 [Example 13-30, (1S,9R)-6-(1,6-dimethyl-1H-indazol-7-yl)-4-((5S)-5-methyl-2-(2-propenoyl)-2,6-diazaspiro[3.4]octan-6-yl)-3-azatricyclo[7.1.1.0^2,7]undeca-2,4,6-triene-5-carbonitrile]	6.15
